Laboratory results taken from patent publication US10131652B2, “Pyrimidinyloxy benzene derivatives as herbicides” (E. I. DU PONT DE NEMOURS AND COMPANY, priority 2014, dated 2018).

How the values were obtained:
Assay in all cases: Test D pre-/postemergence plant response
Assay type in all cases: in vivo
[1] = system: Italian ryegrass (Lolium multiflorum)
Text: (§1) Seeds of plant species selected from blackgrass (Alopecurus myosuroides), Italian ryegrass (Lolium multiflorum), winter wheat (Triticum aestivum), galium (catchweed bedstraw, Galium aparine), corn (Zea mays), large (Lg) crabgrass (Digitaria sanguinalis), giant foxtail (Setaria faberii), johnsongrass (Sorghum halepense), lambsquarters (Chenopodium album), morningglory (Ipomoea coccinea), yellow nutsedge (Cyperus esculentus), pigweed (Amaranthus retroflexus), ragweed (common ragweed, Ambrosia elatior), soybean (Glycine max), bamyardgrass (Echinochloa crus-galli), oilseed rape (Brassica napus), waterhemp (common waterhemp, Amaranthus rudis), and velvetleaf (Abutilon theophrasti) were planted into a blend of loam soil and sand and treated preemergence with test chemicals formulated in a non-phytotoxic solvent mixture which included a surfactant. At the same time, plants selected from these crop and weed species and also kochia (Kochia scoparia), wild oat (Avena fatua), and chickweed (common chickweed, Stellaria media) were planted in pots containing Redi-Earth® planting medium (Scotts Company, 14111 Scottslawn Road, Marysville, Ohio 43041) comprising spaghnum peat moss, vermiculite, wetting agent and starter nutrients and treated with postemergence applications of test chemicals formulated in the same manner. Plants ranged in height from 2 to 18 cm (1- to 4-leaf stage) for postemergence treatments. Treated plants and controls were maintained in a greenhouse for 13 to 15 days, after which time all species were compared to controls and visually evaluated. Plant response ratings, summarized in Table D, are based on a scale of 0 to 100 where 0 is no effect and 100 is complete control. A dash (-) response means no test result.

[2] = system: winter wheat (Triticum aestivum)
Text: as §1

[3] = system: oilseed rape (Brassica napus)
Text: as §1

[4] = system: soybean (Glycine max)
Text: as §1

[5] = system: ragweed (common ragweed, Ambrosia elatior)
Text: as §1

[6] = system: johnsongrass (Sorghum halepense)
Text: as §1

[7] = system: velvetleaf (Abutilon theophrasti)
Text: as §1

[8] = system: pigweed (Amaranthus retroflexus)
Text: as §1

[9] = system: barnyardgrass (Echinochloa crus-galli)
Text: as §1

[10] = system: lambsquarters (Chenopodium album)
Text: as §1

[11] = system: morningglory (Ipomoea coccinea)
Text: as §1

[12] = system: waterhemp (common waterhemp, Amaranthus rudis)
Text: as §1

[13] = system: large (Lg) crabgrass (Digitaria sanguinalis)
Text: as §1

[14] = system: galium (catchweed bedstraw, Galium aparine)
Text: as §1

[15] = system: giant foxtail (Setaria faberii)
Text: as §1

[16] = system: corn (Zea mays)
Text: as §1

[17] = system: blackgrass (Alopecurus myosuroides)
Text: as §1

[18] = system: yellow nutsedge (Cyperus esculentus)
Text: as §1

[19] = Postemergence, 16 g ai/ha, scale 0 to 100 (0 no effect, 100 complete control)
[20] = Postemergence, 31 g ai/ha, scale 0 to 100 (0 no effect, 100 complete control)
[21] = Postemergence, 62 g ai/ha, scale 0 to 100, 0 no effect, 100 complete control
[22] = Postemergence, 125 g ai/ha, scale 0 to 100, 0 no effect, 100 complete control
[23] = Preemergence, 16 g ai/ha, scale 0 to 100 (0 no effect, 100 complete control)
[24] = Preemergence, 31 g ai/ha, scale 0 to 100 (0 no effect, 100 complete control)
[25] = Preemergence, 62 g ai/ha, scale 0 to 100 (0 no effect, 100 complete control)

In the case of `Cc1cc(-c2ccccc2Oc2ncc(Cl)cn2)on1` [Compound 58], the “Ryegrass, Italian plant response rating” value [1, 19] is reported as 0, the “Ryegrass, Italian plant response rating” value [1, 20] is reported as 0 and the “Plant response rating, Ryegrass, Italian” value [1, 21] is reported as 0. The “Plant response rating, Ryegrass, Italian” value [1, 22] was 0, the “Plant response rating (scale 0 to 100), Ryegrass, Italian” value ([1]; Preemergence, 125 g ai/ha) was 5 and the “Plant response rating, Ryegrass, Italian” value [1, 23] was 0. For the same compound, the “Plant response rating, Ryegrass, Italian” value [1, 24] was 0, the “Plant response rating, Ryegrass, Italian” value [1, 25] was 0 and the “Wheat plant response rating” value [2, 19] was 0. For the same compound, the “Wheat plant response rating” value [2, 20] was 5, the “Plant response rating, Wheat” value [2, 21] was 10 and the “Plant response rating, Wheat” value [2, 22] was 10. The “Plant response rating (scale 0 to 100), Wheat” value ([2]; Preemergence, 125 g ai/ha) was 0, the “Plant response rating, Wheat” value [2, 23] was 0 and the “Plant response rating, Wheat” value [2, 24] was 0. For the same compound, the “Plant response rating, Wheat” value [2, 25] was 0, the “Oilseed Rape plant response rating” value [3, 19] was 5 and the “Oilseed Rape plant response rating” value [3, 20] was 10. For the same compound, the “Plant response rating, Oilseed Rape” value [3, 21] was 60, the “Plant response rating, Oilseed Rape” value [3, 22] was 75 and the “Plant response rating (scale 0 to 100), Oilseed Rape” value ([3]; Preemergence, 125 g ai/ha) was 100. For the same compound, the “Plant response rating, Oilseed Rape” value [3, 23] was 60, the “Plant response rating, Oilseed Rape” value [3, 24] was 98 and the “Plant response rating, Oilseed Rape” value [3, 25] was 100. The “Soybean plant response rating” value [4, 19] was 55, the “Soybean plant response rating” value [4, 20] was 40 and the “Plant response rating, Soybean” value [4, 21] was 60. For the same compound, the “Plant response rating, Soybean” value [4, 22] was 75, the “Plant response rating (scale 0 to 100), Soybean” value ([4]; Preemergence, 125 g ai/ha) was 85 and the “Plant response rating, Soybean” value [4, 23] was 30. The “Plant response rating, Soybean” value [4, 24] was 35, the “Plant response rating, Soybean” value [4, 25] was 80 and the “Ragweed plant response rating” value [5, 19] was 20. The “Ragweed plant response rating” value [5, 20] was 45, the “Plant response rating, Ragweed” value [5, 21] was 65 and the “Plant response rating, Ragweed” value [5, 22] was 60. The “Plant response rating (scale 0 to 100), Ragweed” value ([5]; Preemergence, 125 g ai/ha) was 100, the “Plant response rating, Ragweed” value [5, 23] was 100 and the “Plant response rating, Ragweed” value [5, 24] was 35. For the same compound, the “Plant response rating, Ragweed” value [5, 25] was 75, the “Johnsongrass plant response rating” value [6, 19] was 0 and the “Johnsongrass plant response rating” value [6, 20] was 0. The “Plant response rating, Johnsongrass” value [6, 21] was 0, the “Plant response rating, Johnsongrass” value [6, 22] was 5 and the “Plant response rating (scale 0 to 100), Johnsongrass” value ([6]; Preemergence, 125 g ai/ha) was 50. For the same compound, the “Plant response rating, Johnsongrass” value [6, 23] was 10, the “Plant response rating, Johnsongrass” value [6, 24] was 10 and the “Plant response rating, Johnsongrass” value [6, 25] was 20. For the same compound, the “Velvetleaf plant response rating” value [7, 19] was 60, the “Velvetleaf plant response rating” value [7, 20] was 35 and the “Plant response rating, Velvetleaf” value [7, 21] was 60. For the same compound, the “Plant response rating, Velvetleaf” value [7, 22] was 85, the “Plant response rating (scale 0 to 100), Velvetleaf” value ([7]; Preemergence, 125 g ai/ha) was 100 and the “Plant response rating, Velvetleaf” value [7, 23] was 85. The “Plant response rating, Velvetleaf” value [7, 24] was 100, the “Plant response rating, Velvetleaf” value [7, 25] was 100 and the “Pigweed plant response rating” value [8, 19] was 20. For the same compound, the “Pigweed plant response rating” value [8, 20] was 25, the “Plant response rating, Pigweed” value [8, 21] was 40 and the “Plant response rating, Pigweed” value [8, 22] was 75. The “Plant response rating (scale 0 to 100), Pigweed” value ([8]; Preemergence, 125 g ai/ha) was 100, the “Plant response rating, Pigweed” value [8, 23] was 50 and the “Plant response rating, Pigweed” value [8, 24] was 100. For the same compound, the “Plant response rating, Pigweed” value [8, 25] was 100, the “Barnyardgrass plant response rating” value [9, 19] was 0 and the “Barnyardgrass plant response rating” value [9, 20] was 0. For the same compound, the “Plant response rating, Barnyardgrass” value [9, 21] was 0, the “Plant response rating, Barnyardgrass” value [9, 22] was 5 and the “Plant response rating (scale 0 to 100), Barnyardgrass” value ([9]; Preemergence, 62 g ai/ha) was 65. The “Plant response rating (scale 0 to 100), Barnyardgrass” value ([9]; Preemergence, 125 g ai/ha) was 80, the “Plant response rating, Barnyardgrass” value [9, 23] was 5 and the “Plant response rating, Barnyardgrass” value [9, 24] was 5. For the same compound, the “Lambsquarters plant response rating” value [10, 19] was 10, the “Lambsquarters plant response rating” value [10, 20] was 75 and the “Plant response rating, Lambsquarters” value [10, 21] was 60. The “Plant response rating, Lambsquarters” value [10, 22] was 90, the “Plant response rating (scale 0 to 100), Lambsquarters” value ([10]; Preemergence, 125 g ai/ha) was 100 and the “Plant response rating, Lambsquarters” value [10, 23] was 25. The “Plant response rating, Lambsquarters” value [10, 24] was 100, the “Plant response rating, Lambsquarters” value [10, 25] was 100 and the “Morningglory plant response rating” value [11, 19] was 20. For the same compound, the “Morningglory plant response rating” value [11, 20] was 45, the “Plant response rating, Morningglory” value [11, 21] was 45 and the “Plant response rating, Morningglory” value [11, 22] was 65. For the same compound, the “Plant response rating (scale 0 to 100), Morningglory” value ([11]; Preemergence, 125 g ai/ha) was 45, the “Plant response rating, Morningglory” value [11, 23] was 10 and the “Plant response rating, Morningglory” value [11, 24] was 25. The “Plant response rating, Morningglory” value [11, 25] was 0, the “Waterhemp plant response rating” value [12, 19] was 35 and the “Waterhemp plant response rating” value [12, 20] was 40. For the same compound, the “Plant response rating, Waterhemp” value [12, 21] was 55, the “Plant response rating, Waterhemp” value [12, 22] was 75 and the “Plant response rating (scale 0 to 100), Waterhemp” value ([12]; Preemergence, 125 g ai/ha) was 100. For the same compound, the “Plant response rating, Waterhemp” value [12, 23] was 100, the “Plant response rating, Waterhemp” value [12, 24] was 100 and the “Plant response rating, Waterhemp” value [12, 25] was 100. The “Crabgrass, Large plant response rating” value [13, 19] was 5, the “Crabgrass, Large plant response rating” value [13, 20] was 5 and the “Plant response rating, Crabgrass, Large” value [13, 21] was 5. The “Plant response rating, Crabgrass, Large” value [13, 22] was 5, the “Plant response rating (scale 0 to 100), Crabgrass, Large” value ([13]; Preemergence, 125 g ai/ha) was 100 and the “Plant response rating, Crabgrass, Large” value [13, 23] was 25. For the same compound, the “Plant response rating, Crabgrass, Large” value [13, 24] was 90, the “Plant response rating, Crabgrass, Large” value [13, 25] was 100 and the “Galium plant response rating” value [14, 19] was 40. The “Galium plant response rating” value [14, 20] was 45, the “Plant response rating, Galium” value [14, 21] was 60 and the “Plant response rating, Galium” value [14, 22] was 55. The “Plant response rating (scale 0 to 100), Galium” value ([14]; Preemergence, 125 g ai/ha) was 100, the “Plant response rating, Galium” value [14, 23] was 0 and the “Plant response rating, Galium” value [14, 24] was 98. For the same compound, the “Plant response rating, Galium” value [14, 25] was 100, the “Foxtail, Giant plant response rating” value [15, 19] was 0 and the “Foxtail, Giant plant response rating” value [15, 20] was 0. The “Plant response rating, Foxtail, Giant” value [15, 21] was 15, the “Plant response rating, Foxtail, Giant” value [15, 22] was 30 and the “Plant response rating (scale 0 to 100), Foxtail, Giant” value ([15]; Preemergence, 125 g ai/ha) was 98. The “Plant response rating, Foxtail, Giant” value [15, 23] was 0, the “Plant response rating, Foxtail, Giant” value [15, 24] was 15 and the “Plant response rating, Foxtail, Giant” value [15, 25] was 85. For the same compound, the “Corn plant response rating” value [16, 19] was 0, the “Corn plant response rating” value [16, 20] was 0 and the “Plant response rating, Corn” value [16, 21] was 5. For the same compound, the “Plant response rating, Corn” value [16, 22] was 5, the “Plant response rating (scale 0 to 100), Corn” value ([16]; Preemergence, 125 g ai/ha) was 20 and the “Plant response rating, Corn” value [16, 23] was 5. For the same compound, the “Plant response rating, Corn” value [16, 24] was 20, the “Plant response rating, Corn” value [16, 25] was 10 and the “Blackgrass plant response rating” value [17, 19] was 0. For the same compound, the “Blackgrass plant response rating” value [17, 20] was 0, the “Plant response rating, Blackgrass” value [17, 21] was 0 and the “Plant response rating, Blackgrass” value [17, 22] was 5. For the same compound, the “Plant response rating (scale 0 to 100), Blackgrass” value ([17]; Preemergence, 125 g ai/ha) was 95, the “Plant response rating, Blackgrass” value [17, 23] was 0 and the “Plant response rating, Blackgrass” value [17, 24] was 5. For the same compound, the “Plant response rating, Blackgrass” value [17, 25] was 80, the “Nutsedge, Yellow plant response rating” value [18, 19] was 0 and the “Nutsedge, Yellow plant response rating” value [18, 20] was 0. The “Plant response rating, Nutsedge, Yellow” value [18, 21] was 0, the “Plant response rating, Nutsedge, Yellow” value [18, 22] was 0 and the “Plant response rating (scale 0 to 100), Nutsedge, Yellow” value ([18]; Preemergence, 125 g ai/ha) was 15. For the same compound, the “Plant response rating, Nutsedge, Yellow” value [18, 23] was 0, the “Plant response rating, Nutsedge, Yellow” value [18, 24] was 0 and the “Plant response rating, Nutsedge, Yellow” value [18, 25] was 0.
